US10047051B2, “Substituted pyridines and method of use” (AbbVie S.á{acute over (.)}r.l., priority 2015, dated 2018)
pEC50: −log10 of the molar value.

What was measured:
CFTR G551D mutant = target: T1, CFTR G551D mutant (Homo sapiens, UniProt P13569, G551D); assay: YFP-halide influx assay for the CFTR-G551D mutation (HEK293 cells); assay type: cell-based; settings: forskolin 10.67 μM
T1 construct: expressed in transfected cells; host or cells: HEK293 cells, reverse transfection with plasmids
Method in brief: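 Channel opening read as I⁻-driven quenching of a YFP H148Q/I152L/F47L reporter over 7 s post-injection, expressed as 1−F/F0 and fitted against concentration for EC50. Cells were HEK293 co-transfected at seeding with G551D CFTR plus reporter, then grown 24 h at 37 °C, 5% CO2.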

CFTR ΔF508 mutant = target: T2, CFTR ΔF508 mutant (Homo sapiens, UniProt P13569, DEL508-508); assay: YFP-halide influx assay for the CFTR-ΔF508 mutation (CFBE41o- cells); assay type: cell-based; settings: forskolin 10.67 μM; for pEC50: from (1−F/F0) vs concentration plot
T2 construct: expressed in transfected cells; host or cells: CFBE41o- cells, adenoviral transduction
Method in brief: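 EC50 derived from plotting 1−F/F0 (fluorescence 36 s after iodide injection over pre-injection value) against compound concentration. Cells: CFBE41o- transduced with ΔF508-CFTR and YFP quench reporter, corrected 24 h at 27° C or by a CFTR modulator at 37° C.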

T1 sequence (P13569 whole entry G551D): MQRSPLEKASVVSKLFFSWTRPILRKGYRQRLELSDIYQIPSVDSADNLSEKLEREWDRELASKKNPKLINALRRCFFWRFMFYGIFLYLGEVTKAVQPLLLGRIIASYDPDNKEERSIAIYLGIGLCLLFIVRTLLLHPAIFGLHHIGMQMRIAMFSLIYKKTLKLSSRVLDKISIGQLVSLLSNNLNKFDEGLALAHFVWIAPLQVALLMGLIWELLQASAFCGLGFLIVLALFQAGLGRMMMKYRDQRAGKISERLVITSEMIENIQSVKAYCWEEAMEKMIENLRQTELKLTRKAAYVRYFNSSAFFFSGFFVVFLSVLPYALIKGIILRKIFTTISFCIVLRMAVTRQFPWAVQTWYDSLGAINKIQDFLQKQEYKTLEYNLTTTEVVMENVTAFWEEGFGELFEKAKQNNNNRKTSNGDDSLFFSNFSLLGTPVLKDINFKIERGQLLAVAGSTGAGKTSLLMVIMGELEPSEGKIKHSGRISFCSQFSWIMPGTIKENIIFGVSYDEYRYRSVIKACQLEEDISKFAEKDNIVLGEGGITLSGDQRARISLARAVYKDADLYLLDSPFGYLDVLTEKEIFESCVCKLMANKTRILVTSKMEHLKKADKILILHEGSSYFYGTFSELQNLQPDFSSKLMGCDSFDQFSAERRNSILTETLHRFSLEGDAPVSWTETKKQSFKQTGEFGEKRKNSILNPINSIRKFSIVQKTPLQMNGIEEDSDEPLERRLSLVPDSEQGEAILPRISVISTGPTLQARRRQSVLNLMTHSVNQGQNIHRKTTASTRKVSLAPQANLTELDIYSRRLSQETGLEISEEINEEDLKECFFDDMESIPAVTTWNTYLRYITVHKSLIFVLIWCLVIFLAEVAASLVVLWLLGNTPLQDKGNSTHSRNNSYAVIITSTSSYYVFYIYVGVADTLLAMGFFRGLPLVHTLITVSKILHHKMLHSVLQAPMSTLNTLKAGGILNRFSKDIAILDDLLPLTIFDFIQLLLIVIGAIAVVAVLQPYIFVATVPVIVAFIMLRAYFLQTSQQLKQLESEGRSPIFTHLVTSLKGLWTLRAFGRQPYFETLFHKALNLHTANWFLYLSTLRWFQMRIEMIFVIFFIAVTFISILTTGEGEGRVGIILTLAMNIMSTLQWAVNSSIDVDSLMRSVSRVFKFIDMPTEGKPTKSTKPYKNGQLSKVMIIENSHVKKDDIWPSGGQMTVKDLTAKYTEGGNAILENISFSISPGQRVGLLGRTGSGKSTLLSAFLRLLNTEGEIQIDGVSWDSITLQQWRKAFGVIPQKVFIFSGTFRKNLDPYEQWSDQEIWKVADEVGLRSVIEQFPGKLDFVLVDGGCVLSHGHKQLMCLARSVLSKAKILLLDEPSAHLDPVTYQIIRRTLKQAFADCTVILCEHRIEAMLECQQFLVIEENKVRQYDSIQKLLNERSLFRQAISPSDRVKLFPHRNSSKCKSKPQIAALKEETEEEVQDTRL
T2 sequence (P13569 with tags, fused parts or gaps DEL508-508): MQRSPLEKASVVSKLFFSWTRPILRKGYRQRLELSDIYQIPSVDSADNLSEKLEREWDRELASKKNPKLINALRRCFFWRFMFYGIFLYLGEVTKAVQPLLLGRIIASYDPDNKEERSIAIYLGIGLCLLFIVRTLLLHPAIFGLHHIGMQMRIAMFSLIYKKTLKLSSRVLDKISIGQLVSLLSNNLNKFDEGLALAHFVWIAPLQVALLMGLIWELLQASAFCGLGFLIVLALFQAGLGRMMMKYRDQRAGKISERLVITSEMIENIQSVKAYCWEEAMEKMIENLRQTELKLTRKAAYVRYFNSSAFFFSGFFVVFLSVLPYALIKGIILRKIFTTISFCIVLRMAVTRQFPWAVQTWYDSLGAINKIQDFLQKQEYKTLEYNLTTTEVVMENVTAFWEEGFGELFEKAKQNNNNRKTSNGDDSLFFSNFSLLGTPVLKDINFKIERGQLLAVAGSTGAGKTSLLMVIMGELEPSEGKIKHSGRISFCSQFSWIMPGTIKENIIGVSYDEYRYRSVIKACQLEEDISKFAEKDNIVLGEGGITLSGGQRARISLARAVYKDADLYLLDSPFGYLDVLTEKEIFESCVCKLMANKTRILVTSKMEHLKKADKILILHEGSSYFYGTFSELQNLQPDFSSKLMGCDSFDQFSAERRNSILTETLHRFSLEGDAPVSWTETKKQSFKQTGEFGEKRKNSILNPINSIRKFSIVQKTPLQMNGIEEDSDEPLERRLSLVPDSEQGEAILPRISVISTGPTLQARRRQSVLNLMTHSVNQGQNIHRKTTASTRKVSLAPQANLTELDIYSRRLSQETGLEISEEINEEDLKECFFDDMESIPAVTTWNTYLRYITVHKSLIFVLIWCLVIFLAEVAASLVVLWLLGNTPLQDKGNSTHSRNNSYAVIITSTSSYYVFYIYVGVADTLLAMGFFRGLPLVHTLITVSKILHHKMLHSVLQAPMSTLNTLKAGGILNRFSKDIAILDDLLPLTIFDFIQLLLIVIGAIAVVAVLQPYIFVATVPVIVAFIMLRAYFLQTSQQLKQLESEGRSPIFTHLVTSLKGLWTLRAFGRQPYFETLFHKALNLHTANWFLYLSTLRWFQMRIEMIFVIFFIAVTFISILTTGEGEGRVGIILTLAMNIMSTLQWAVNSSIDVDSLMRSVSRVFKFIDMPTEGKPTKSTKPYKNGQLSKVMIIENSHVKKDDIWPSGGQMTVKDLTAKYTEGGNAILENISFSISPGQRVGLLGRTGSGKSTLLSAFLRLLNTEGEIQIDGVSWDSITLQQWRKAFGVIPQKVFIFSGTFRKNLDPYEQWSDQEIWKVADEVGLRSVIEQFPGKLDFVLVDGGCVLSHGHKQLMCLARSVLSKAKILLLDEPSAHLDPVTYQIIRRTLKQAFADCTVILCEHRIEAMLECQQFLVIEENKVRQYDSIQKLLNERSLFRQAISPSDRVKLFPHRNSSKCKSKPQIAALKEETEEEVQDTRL

% Activation (CFTR G551D mutant) [%]	pEC50 (CFTR G551D mutant)	% Activation (CFTR ΔF508 mutant) [%]	pEC50 (CFTR ΔF508 mutant)	Structure (SMILES)
6.51	5.70	76.0	6.67	CC(C)S(=O)(=O)c1cc(N)c(C(=O)NC[C@H](C)O)nc1-c1ccc(F)cc1 [Compound 264, 3-amino-6-(4-fluorophenyl)-N-[(2S)-2-hydroxypropyl]-5-(propan-2-ylsulfonyl)pyridine-2-carboxamide]
11.24	5.70	92.4	6.85	COCCS(=O)(=O)c1cc(N)c(C(=O)NC[C@H](C)O)nc1-c1ccc(F)cc1 [Compound 265, 3-amino-6-(4-fluorophenyl)-N-[(2S)-2-hydroxypropyl]-5-[(2-methoxyethyl)sulfonyl]pyridine-2-carboxamide]
21.9	< 5.00	105.0	6.74	C[C@H](O)CNC(=O)c1ncc(S(=O)(=O)N2CCC[C@@H]2C)cc1N [Compound 266, 3-amino-N-[(2S)-2-hydroxypropyl]-5-{[(2S)-2-methylpyrrolidin-1-yl]sulfonyl}pyridine-2-carboxamide]
0.9	< 5.00	59.3	< 6.18	C[C@H](O)CNC(=O)c1ncc(S(=O)(=O)NCc2ccc(F)cc2)cc1N [Compound 267, 3-amino-5-[(4-fluorobenzyl)sulfamoyl]-N-[(2S)-2-hydroxypropyl]pyridine-2-carboxamide]
44.8	5.88	107.0	8.11	C[C@H](O)CNC(=O)c1ncc(S(=O)(=O)N(C)Cc2ccc(F)cc2)cc1N [Compound 269, 3-amino-5-[(4-fluorobenzyl)(methyl)sulfamoyl]-N-[(2S)-2-hydroxypropyl]pyridine-2-carboxamide]
23.8	< 5.00	100.0	6.84	CC(C)NC(=O)CNC(=O)c1ncc(S(=O)(=O)N2CCC[C@@H]2C)cc1N [Compound 270, 3-amino-5-{[(2S)-2-methylpyrrolidin-1-yl]sulfonyl}-N-[2-oxo-2-(propan-2-ylamino)ethyl]pyridine-2-carboxamide]
2.5	< 5.00	20.4	< 5.70	C[C@H]1CCCN1S(=O)(=O)c1cnc(C(=O)N2CC(C(N)=O)C2)c(N)c1 [Compound 271, 1-[(3-amino-5-{[(2S)-2-methylpyrrolidin-1-yl]sulfonyl}pyridin-2-yl)carbonyl]azetidine-3-carboxamide]
2.8	< 5.30	82.0	< 6.48	C[C@H]1CCCN1S(=O)(=O)c1cnc(C(=O)N2CC(O)C2)c(N)c1 [Compound 272, (3-amino-5-{[(2S)-2-methylpyrrolidin-1-yl]sulfonyl}pyridin-2-yl) (3-hydroxyazetidin-1-yl)methanone]
39.5	6.00	112.0	7.99	Nc1cc(S(=O)(=O)c2ccc(OC(F)(F)F)cc2)cnc1C(=O)NCC(O)CF (stereo not shown) [Compound 273, 3-amino-N-(3-fluoro-2-hydroxypropyl)-5-{[4-(trifluoromethoxy)phenyl]sulfonyl}pyridine-2-carboxamide]

More lines, now with the values behind:

Structure (SMILES)	% Activation (CFTR G551D mutant) [%]	pEC50 (CFTR G551D mutant)	% Activation (CFTR ΔF508 mutant) [%]	pEC50 (CFTR ΔF508 mutant)
Nc1cc(S(=O)(=O)c2ccccc2)cnc1C(=O)NCC(O)C(F)(F)F (stereo not shown) [Compound 244, 3-amino-5-(phenylsulfonyl)-N-(3,3,3-trifluoro-2-hydroxypropyl)pyridine-2-carboxamide]	65.9	6.25	102.5	8.07
Cc1ccc(S(=O)(=O)c2cnc(C(=O)NCC(O)C(F)(F)F)c(N)c2)cc1 (stereo not shown) [Compound 245, 3-amino-5-[(4-methylphenyl)sulfonyl]-N-(3,3,3-trifluoro-2-hydroxypropyl)pyridine-2-carboxamide]	80.8	6.40	114.0	8.25
CC(C)c1ccc(S(=O)(=O)c2cnc(C(=O)NCC(O)C(F)(F)F)c(N)c2)cc1 (stereo not shown) [Compound 246, 3-amino-5-{[4-(propan-2-yl)phenyl]sulfonyl}-N-(3,3,3-trifluoro-2-hydroxypropyl)pyridine-2-carboxamide]	106.0	6.41	118.0	8.41
CC(C)(C)c1ccc(S(=O)(=O)c2cnc(C(=O)NCC(O)C(F)(F)F)c(N)c2)cc1 (stereo not shown) [Compound 247, 3-amino-5-[(4-tert-butylphenyl)sulfonyl]-N-(3,3,3-trifluoro-2-hydroxypropyl)pyridine-2-carboxamide]	98.7	6.66	114.5	8.37
Nc1cc(S(=O)(=O)c2ccc(C(F)(F)F)cc2)cnc1C(=O)NC[C@@H](O)COCC(F)(F)F [Compound 248, 3-amino-N-[(2R)-2-hydroxy-3-(2,2,2-trifluoroethoxy)propyl]-5-{[4-(trifluoromethyl)phenyl]sulfonyl}pyridine-2-carboxamide]	91.1	6.41	105.0	7.92
Nc1cc(S(=O)(=O)c2ccc(C(F)(F)F)cc2)cnc1C(=O)NC[C@H](O)COCC(F)(F)F [Compound 249, 3-amino-N-[(2S)-2-hydroxy-3-(2,2,2-trifluoroethoxy)propyl]-5-{[4-(trifluoromethyl)phenyl]sulfonyl}pyridine-2-carboxamide]	83.7	6.76	96.2	8.52
Nc1cc(S(=O)(=O)c2ccc(F)cc2)c(Br)nc1C(=O)NC[C@@H](O)C(F)(F)F [Compound 250, 3-amino-6-bromo-5-[(4-fluorophenyl)sulfonyl]-N-[(2R)-3,3,3-trifluoro-2-hydroxypropyl]pyridine-2-carboxamide]	90.4	6.34	111.5	9.00
Nc1cc(S(=O)(=O)c2ccc(OC(F)(F)F)cc2)cnc1C(=O)NC[C@@H](O)COCC1CC1 [Compound 251, 3-amino-N-[(2R)-3-(cyclopropylmethoxy)-2-hydroxypropyl]-5-{[4-(trifluoromethoxy)phenyl]sulfonyl}pyridine-2-carboxamide]	93.3	6.04	110.0	7.79
Nc1cc(S(=O)(=O)c2cccc(F)c2)cnc1C(=O)NC[C@@H](O)C(F)(F)F [Compound 254, 3-amino-5-[(3-fluorophenyl)sulfonyl]-N-[(2R)-3,3,3-trifluoro-2-hydroxypropyl]pyridine-2-carboxamide]	56.0	5.84	106.0	8.30
Nc1cc(S(=O)(=O)c2ccccc2)cnc1C(=O)N1CC(O)(C(F)(F)F)C1 [Compound 255, [3-amino-5-(phenyl sulfonyl)pyridin-2-yl][3-hydroxy-3-(trifluoromethyl)azetidin-1-yl]methanone]	41.8	5.24	104.2	8.89
Nc1cc(S(=O)(=O)c2cccc(F)c2)cnc1C(=O)N1CC(O)(C(F)(F)F)C1 [Compound 256, {3-amino-5-[(3-fluorophenyl)sulfonyl]pyridin-2-yl}[3-hydroxy-3-(trifluoromethyl)azetidin-1-yl]methanone]	45.6	< 5.48	107.4	9.18
Nc1cc(S(=O)(=O)c2ccc(C(F)(F)F)cc2)cnc1C(=O)N[C@H]1COCC[C@H]1O [Compound 257, 3-amino-N-[(3S,4R)-4-hydroxytetrahydro-2H-pyran-3-yl]-5-{[4-(trifluoromethyl)phenyl]sulfonyl}pyridine-2-carboxamide]	50.4	6.12	122.0	7.57
Nc1cc(S(=O)(=O)c2ccc(C(F)(F)F)cc2)c(C2CC2)nc1C(=O)NCCO [Compound 258, 3-amino-6-cyclopropyl-N-(2-hydroxyethyl)-5-{[4-(trifluoromethyl)phenyl]sulfonyl}pyridine-2-carboxamide]	108.0	6.29	119.0	8.00
C[C@H](O)CNC(=O)c1nc(-c2ccc(F)cc2)c(S(=O)(=O)C2CCCC2)cc1N [Compound 261, 3-amino-5-(cyclopentanesulfonyl)-6-(4-fluorophenyl)-N-[(2S)-2-hydroxypropyl]pyridine-2-carboxamide]	16.6	< 6.00	87.3	6.79
C[C@H](O)CNC(=O)c1nc(-c2ccc(F)cc2)c(S(=O)(=O)CCO)cc1N [Compound 262, 3-amino-6-(4-fluorophenyl)-5-[(2-hydroxyethyl)sulfonyl]-N-[(2S)-2-hydroxypropyl]pyridine-2-carboxamide]	5.5	< 6.00	8.9	< 6.00
CCS(=O)(=O)c1cc(N)c(C(=O)NC[C@H](C)O)nc1-c1ccc(F)cc1 [Compound 263, 3-amino-5-(ethylsulfonyl)-6-(4-fluorophenyl)-N-[(2S)-2-hydroxypropyl]pyridine-2-carboxamide]	5.99	5.70	97.2	6.85
